The source of these data is publication PMC11470999, “Penfluridol inhibits melanoma growth and metastasis through enhancing von Hippel‒Lindau tumor suppressor‐mediated cancerous inhibitor of protein phosphatase 2A (CIP2A) degradation” (MedComm, 2024).

The target of one assay is T1, Hu‐CIP2A (1‐560) (Homo sapiens, UniProt Q8TCG1).
T1 construct: recombinant purified N-terminal armadillo repeat domain, residues 1-560 of 905
Briefly: isothermal titration calorimetry, one-site model. In kind it is binding. To be noted: read-out: dissociation constant. An excerpt: isothermal titration calorimetry, one-site model on Hu‐CIP2A (1‐560) | A strong binding affinity between PF and CIP2A protein was observed, with a dissociation constant

The target in a further assay is T2, CIP2A (Homo sapiens, UniProt Q8TCG1).
T2 construct: endogenous full-length protein in A375 human melanoma cells / lysate; 905 residues
Briefly: DARTS (proteinase K, immunoblot) and cellular thermal shift assay. In kind it is cell-based. To be noted: A375 cells treated with PF (DARTS); melanoma cells (CETSA).

For the compound `OC1(c2ccc(Cl)c(C(F)(F)F)c2)CCN(CCCC(c2ccc(F)cc2)c2ccc(F)cc2)CC1` [PF, Penfluridol], at Hu‐CIP2A (1‐560), the Kd amounted to 7.42 µM. Besides, the “DARTS (proteinase K, immunoblot) and cellular thermal shift assay” value on CIP2A is listed as “PF protects CIP2A from proteinase K‐induced protein hydrolysis”.
